{"source": "patent US20240016784A1", "about": "“Y BOX BINDING PROTEIN 1 INHIBITORS” (Oregon Health & Science University, priority 2020, published 2024)", "key": {"[1]": {"test_system": "ID-8 tumor xenograft", "assay": "ID8 syngeneic ovarian tumor model, tumor growth and lung metastasis", "type": "in vivo, C57BL/6 mice", "protocol": "These promising results led us to test SU093 and SU056 in vivo. C57BL/6 mice were implanted with 2×10^6 firefly luciferase (luc+)-expressing ID-8 syngeneic ovarian cancer cells subcutaneously. Once the tumors reached 100 mm^3 in size, we began daily intraperitoneal treatment with SU093 and SU056 at 20 mg/kg (vehicle control 30% PEG-300 in saline). Tumor growth was monitored via bioluminescence imaging (IVIS).\nDue to prior observation of a significant reduction in the migratory ability of OC cells treated with the two drugs (FIG. 1H), we also measured the effect of drug treatment on ovarian cancer metastases. At the end of above experiment, lungs were fixed and metastatic foci were counted under the dissecting microscope followed by H&E staining.\n(§1) In vivo xenograft model and drug efficacy study: All animal experiments were reviewed and approved by the Animal Care and Use Committee of Stanford University, CA, USA. Luciferase tagged ID8 (2×10^6) or OVCAR8 (5×10^6) cells were implanted into the right flank of 6-7-week-old female C57BL/6 mice and NOD/SCID mice, respectively. Respective treatment began after tumors grew to 100-200 mm^3 diameters. The ID8 syngeneic mice model was treated with a vehicle (30% PEG-300 in saline), 20 mg/kg SU093, and 20 mg/kg SU056 intraperitoneally (IP) daily for 42 days. At the end of treatment, blood was collected from each mouse and analyzed for liver toxicity parameters, including Alanine Aminotransferase (ALT), Aspartate Aminotransferase (AST), and Alkaline Phosphatase (ALKP). OVCAR8 xenograft mice model was treated with vehicle (30% PEG-300 in saline), 5 mg/kg paclitaxel (once a week), 10 mg/kg SU056 (daily), a combination of paclitaxel (5 mg/kg, once a week) and SU056 (10 mg/kg, daily) for 4 weeks. Mice from both studies were euthanized, the tumor and different organs were collected and fixed in neutral buffered formalin and further processed for immunohistochemical analysis.\nFIGS. 2A-2F. SU093 and SU056 inhibit mice ovarian ID-8 tumor xenograft growth in C57BL/6 mice. Mice were subcutaneously injected with ID-8 cells mixed with Matrigel in 1:1 ratio and the drug treatment started when tumors reached 100 mm^3. […] FIG. 2B) Tumor volume/mouse as a function of time. […] FIG. 2C) Tumor weight/mouse at the end of the study. […] FIG. 2D) Liver toxicity parameters at the end of 42 days showing no significant difference between control, SU093, and SU056. FIGS. 2E-2F) Lung metastasis assay. FIG. 2E) H&E staining of the lung (red arrow indicates the metastasis from ID8 xenograft). Scale bar, 250 μm. FIG. 2F) No. of lung metastatic nodules."}, "[2]": {"target": "YB-1 (Homo sapiens, UniProt P67809)", "sequence (P67809 whole entry)": "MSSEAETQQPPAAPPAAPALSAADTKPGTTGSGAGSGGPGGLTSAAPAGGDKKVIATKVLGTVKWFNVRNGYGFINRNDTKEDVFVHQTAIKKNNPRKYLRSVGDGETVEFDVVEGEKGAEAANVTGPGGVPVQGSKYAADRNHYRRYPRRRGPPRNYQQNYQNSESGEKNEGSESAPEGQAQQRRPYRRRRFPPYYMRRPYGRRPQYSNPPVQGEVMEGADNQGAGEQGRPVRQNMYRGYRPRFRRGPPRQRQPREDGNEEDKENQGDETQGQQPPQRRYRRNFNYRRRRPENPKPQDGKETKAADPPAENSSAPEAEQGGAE", "assay": "Cellular Thermal Shift Assay (CETSA) in OVCAR8 cells", "type": "binding", "design": "endogenous in cells; host or cells: OVCAR8", "conditions": "SU056 2.5 μM, 1.5 h, read-out: increase in thermal stability (Tm shift) of YB-1", "protocol": "The cellular thermal shift assay (CETSA) is based on the principle of protein-ligand interactions causing a shift in protein thermal stability (Savitski et al., 2014). When a protein interacts with ligand, its thermal stability increases, and this principle allows identification of which protein targets that are engaged by small molecules or drug candidates. We used this assay to identify protein targets of SU056. OVCAR8 cells were treated with SU056 (2.5 μM) for 1.5 h, and protein lysates were analyzed for a thermal shift. The heat maps represent the thermal stability of 804 soluble proteins in the presence and absence of SU056 compare with 37° C. (FIG. 3A).\nCellular Thermal Shift Assay (CETSA): The assay was performed as previously described (Savitski et al., 2014). Briefly, OVCAR8 cells were treated with vehicle (DMSO) or SU056 (2.5 μM) at 70-80% confluency for 1.5 h. Cells were harvested and washed with 1×PBS twice. Cells were pelleted and resuspended in PBS. 10 different PCR tubes with 1×10^6 cells/tube (in 100 μL PBS) were prepared for both the groups. Tubes were exposed to respective temperatures (37, 41, 44, 47, 50, 53, 56, 59, 63, 67° C.) for 3 min using a thermal cycler (Bio-Rad, CA, USA) followed by 2 min incubation at room temperature."}, "[3]": {"test_system": "OVCAR8 OC tumors", "assay": "OVCAR8 xenograft combination study", "type": "in vivo, NOD-SCID mice", "conditions": "SU056 10 mg/kg daily, paclitaxel 5 mg/kg weekly, intraperitoneal, 28 days", "protocol": "In a pharmacokinetics study in vivo, injection of 20 mg/kg SU056 led to a maximum serum concentration of 28.19 μg/mL with a T1/2 of ˜45 min. We then tested the synergism of paclitaxel and SU056 co-treatment in vivo in NOD-SCID mice implanted with OVCAR8 OC tumors as described above. Mice were given daily treatment of SU056 (10 mg/kg) and weekly treatment of paclitaxel (5 mg/kg) were administered intraperitoneally. […] This likely resulted from decreased paclitaxel efflux from OVCAR8 cells in the presence of SU056.\nas §1, with “OVCAR8 xenograft mice model was treated with vehicle (30% PEG-300 in saline), 5 mg/kg paclitaxel (once a week), 10 mg/kg SU056 (daily), a combination of paclitaxel (5 mg/kg, once a week) and SU056 (10 mg/kg, daily) for 4 weeks. Mice from both studies were euthanized, the tumor and different organs were collected and fixed in neutral buffered formalin and further processed for immunohistochemical analysis.” left out"}, "[4]": {"test_system": "OVCAR8 YBX1-shRNA1 cells", "assay": "Cell viability assay, transduced OVCAR8 cells", "conditions": "Homo sapiens, OVCAR-8, read-out: IC50 (cell viability)", "text": "To check the dependency of SU056 activity on YB-1 expression, we also tested OVCAR8 cells transfected with YB-1 knockdown using transduction of lentiviral shRNA vectors. […] Furthermore, we also performed a cell viability assay using knockdown cells to calculate IC50 values.\nScrambled control (SC), YBX1 knockdown (1 & 2) and mCherry-YBX1 OVCAR8 cell lines were created using lentiviral based transduction and selected using puromycin resistance followed by cell shorting.\nCell viability assay: Cell viability was assessed using the standard MTT assay protocol. In brief, 5,000 cells were plated in each well of 96 well plates (Corning-Costar, #3598) and allowed to attach for 24 h. Cells were treated with a respective concentration of compounds for respective time points. A stock solution of each compound was prepared in DMSO. DMSO concentration was kept constant and maintained below 0.1%. After each incubation, 50 μL of 0.5 mg/ml MTT solution prepared in 1×PBS was added to each well followed by 1 h incubation at 37° C. and 5% CO2. MTT solution and media were then removed, and MTT formazan crystals were dissolved in 100 μL of DMSO per well. Absorbance at 570 nm for each well was recorded using a multimode plate reader to quantitate MTT crystallization. Each absorbance value was normalized to controls and converted into percent cell viability. […]"}}}
{"smiles": "O=C1OCC2=C1C(c1cccc(F)c1)c1cc3c(cc1N2CCO)OCO3", "note": "(stereo not drawn) [SU056, 9-(3-fluorophenyl)-5-(2-hydroxyethyl)-6,9-dihydro-[1,3]dioxolo[4,5-g]furo[3,4-b]quinolin-8(5H)-one]", "values": [{"measurement": "reduction in lung metastases", "setting": "[1]; 20 mg/kg daily IP, 42 days, histological scoring", "value": 3, "unit": "fold"}, {"measurement": "reduction in tumor weight", "setting": "[1]; 20 mg/kg daily IP, at 42 days", "value": 2, "unit": "fold"}, {"measurement": "tumor progression vs vehicle control", "setting": "[1]; 20 mg/kg daily intraperitoneal, bioluminescence imaging", "value": "significantly delay the tumor progression"}, {"measurement": "ΔTm at 2.5 µM", "setting": "[2]", "value": "5.92 ± 0.86", "unit": "°C"}, {"measurement": "OC tumor growth", "setting": "[3]", "value": "significant reduction in OC tumor growth"}, {"measurement": "IC50", "setting": "[4]", "value": 15.8, "unit": "µM"}]}
